Laboratory results taken from the supplement of paper PMC10307832.

Columns and labels:
Assay in all cases: relative viability (nuclei count vs DMSO), 5 days (fraction); higher = more cells survive
Tozasertib + Alpelisib = compound: Cc1cc(Nc2cc(N3CCN(C)CC3)nc(Sc3ccc(NC(=O)C4CC4)cc3)n2)n[nH]1 [Tozasertib] + Cc1nc(NC(=O)N2CCC[C@H]2C(N)=O)sc1-c1ccnc(C(C)(C)C(F)(F)F)c1 [Alpelisib] (partner 2 µM)
In short: (§1)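 Relative viability is defined as nuclei in treated wells over nuclei in vehicle wells. Duplicate plates were run and medians reported. Lung cancer cell lines in 1536-well plates were dosed by pin tool one day after seeding, with one drug or with a fixed anchor-drug dose plus five library-drug doses (not always all listed) in √10 steps, and nuclei were counted after 5 days.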

Tozasertib + Lapatinib = compound: Cc1cc(Nc2cc(N3CCN(C)CC3)nc(Sc3ccc(NC(=O)C4CC4)cc3)n2)n[nH]1 [Tozasertib] + CS(=O)(=O)CCNCc1ccc(-c2ccc3ncnc(Nc4ccc(OCc5cccc(F)c5)c(Cl)c4)c3c2)o1 [Lapatinib] (partner 2 µM)
In short: as §1

Tozasertib + Dasatinib = compound: Cc1cc(Nc2cc(N3CCN(C)CC3)nc(Sc3ccc(NC(=O)C4CC4)cc3)n2)n[nH]1 [Tozasertib] + Cc1nc(Nc2ncc(C(=O)Nc3c(C)cccc3Cl)s2)cc(N2CCN(CCO)CC2)n1 [Dasatinib] (partner 0.075 µM)
In short: as §1

Tozasertib + Vorinostat = compound: Cc1cc(Nc2cc(N3CCN(C)CC3)nc(Sc3ccc(NC(=O)C4CC4)cc3)n2)n[nH]1 [Tozasertib] + O=C(CCCCCCC(=O)Nc1ccccc1)NO [Vorinostat] (partner 1 µM)
In short: as §1

Tozasertib + Decitabine = compound: Cc1cc(Nc2cc(N3CCN(C)CC3)nc(Sc3ccc(NC(=O)C4CC4)cc3)n2)n[nH]1 [Tozasertib] + Nc1ncn([C@H]2C[C@H](O)[C@@H](CO)O2)c(=O)n1 [Decitabine] (partner 2 µM)
In short: as §1

| Cell Line | relative viability (Tozasertib + Alpelisib; first compound 0.004 µM) | relative viability (Tozasertib + Alpelisib; first compound 0.01265 µM) | relative viability (Tozasertib + Alpelisib; first compound 0.04 µM) | relative viability (Tozasertib + Alpelisib; first compound 0.1265 µM) | relative viability (Tozasertib + Lapatinib; first compound 0.004 µM) | relative viability (Tozasertib + Lapatinib; first compound 0.01265 µM) | relative viability (Tozasertib + Lapatinib; first compound 0.04 µM) | relative viability (Tozasertib + Lapatinib; first compound 0.1265 µM) | relative viability (Tozasertib + Dasatinib; first compound 0.004 µM) | relative viability (Tozasertib + Dasatinib; first compound 0.01265 µM) | relative viability (Tozasertib + Dasatinib; first compound 0.04 µM) | relative viability (Tozasertib + Dasatinib; first compound 0.1265 µM) | relative viability (Tozasertib + Vorinostat; first compound 0.004 µM) | relative viability (Tozasertib + Vorinostat; first compound 0.01265 µM) | relative viability (Tozasertib + Vorinostat; first compound 0.04 µM) | relative viability (Tozasertib + Vorinostat; first compound 0.1265 µM) | relative viability (Tozasertib + Decitabine; first compound 0.004 µM) | relative viability (Tozasertib + Decitabine; first compound 0.01265 µM) | relative viability (Tozasertib + Decitabine; first compound 0.04 µM) | relative viability (Tozasertib + Decitabine; first compound 0.1265 µM) |
| --- | --- | --- | --- | --- | --- | --- | --- | --- | --- | --- | --- | --- | --- | --- | --- | --- | --- | --- | --- | --- |
| 201T | 0.993 | 0.968 | 1.06 | 1 | 1 | 0.981 | 1.05 | 0.884 | 0.593 | 0.503 | 0.714 | 0.555 | 0.939 | 0.902 | 0.968 | 0.946 | 0.854 | 0.844 | 0.874 | 0.83 |
| A549 | 0.686 | 0.826 | 0.759 | 0.211 | 1.04 | 0.859 | 0.835 | 0.0927 |  |  |  |  |  |  |  |  | 0.27 | 0.266 | 0.282 | 0.199 |
| A-427 | 1.06 | 1.1 | 1.17 | 0.751 | 1.09 |  | 1.04 | 0.824 | 0.774 | 0.692 | 0.76 | 0.426 | 0.858 | 0.817 | 0.804 | 0.489 | 0.563 | 0.528 | 0.627 | 0.426 |
| ABC-1 | 0.916 | 1.06 | 0.721 | 0.816 | 1.26 | 1.04 | 1.13 | 1.24 | 0.494 | 0.535 | 0.577 | 0.258 | 1.35 | 1 | 0.767 | 0.306 | 0.989 | 1.03 | 0.539 | 0.44 |
| BEN | 1.04 | 0.948 | 1.14 | 0.931 | 0.73 | 0.886 | 0.696 | 0.577 | 0.372 | 0.354 | 0.363 | 0.287 | 0.551 |  | 0.59 | 0.398 | 0.739 | 0.688 | 0.755 | 0.501 |
| CAL-12T | 1.31 | 1.23 | 1.33 | 1.08 | 0.651 | 0.596 | 0.626 | 0.414 | 0.434 | 0.332 | 0.404 | 0.151 | 0.694 | 0.677 | 0.751 | 0.305 |  |  |  |  |
| COR-L23 | 0.827 | 0.763 | 0.585 | 0.699 | 1.02 | 0.863 | 0.721 | 0.247 | 0.521 | 0.547 | 0.479 | 0.245 | 0.522 | 0.403 | 0.393 | 0.198 | 0.42 | 0.384 | 0.439 | 0.247 |
| COR-L 105 |  | 1.29 | 1.32 | 0.739 | 0.358 | 0.365 | 0.335 | 0.262 | 0.352 | 0.291 | 0.32 | 0.214 | 0.998 |  | 0.936 | 0.512 | 0.717 | 0.61 | 0.69 | 0.558 |
| ChaGo-K-1 |  |  |  |  |  |  |  |  | 0.624 | 0.616 | 0.648 | 0.398 | 0.75 | 0.683 | 0.714 | 0.265 | 0.506 | 0.463 | 0.49 | 0.446 |
| EKVX | 0.779 | 0.846 | 1.01 | 0.878 | 0.189 | 0.167 | 0.227 | 0.185 | 0.494 | 0.606 | 0.471 |  | 0.665 | 0.543 | 0.637 | 0.613 | 0.265 | 0.345 | 0.354 | 0.316 |
| EMC-BAC-2 | 0.771 |  | 0.724 | 0.428 | 0.851 |  | 0.908 | 0.567 | 0.314 | 0.321 | 0.342 | 0.259 | 0.438 | 0.233 | 0.242 | 0.15 | 0.977 | 0.86 | 0.918 | 0.58 |
| EPLC-272H | 0.845 | 0.789 | 1.11 |  | 0.958 |  | 0.891 |  | 0.313 | 0.399 | 0.39 | 0.291 | 0.521 |  | 0.318 | 0.287 | 0.369 | 0.325 | 0.368 | 0.318 |
| H3255 | 0.592 | 0.654 | 0.762 | 0.658 | 0.256 | 0.229 | 0.236 | 0.228 | 0.37 | 0.409 | 0.339 | 0.304 | 0.86 | 0.676 |  | 0.712 | 0.71 | 0.475 | 0.592 | 0.558 |
| HARA | 0.955 | 0.795 | 0.994 | 0.305 |  | 0.695 | 1.02 | 0.246 | 0.286 | 0.281 | 0.336 | 0.303 | 0.674 | 0.427 | 0.507 | 0.419 | 0.495 | 0.486 | 0.572 | 0.203 |
| HCC-15 | 0.942 | 0.841 |  | 0.728 | 0.992 | 0.852 | 0.92 | 0.751 | 0.61 | 0.532 | 0.624 | 0.319 | 0.86 | 0.735 | 0.923 |  | 0.66 | 0.496 | 0.64 | 0.339 |
| HCC-44 | 0.779 | 0.773 | 0.836 |  | 1.06 | 1.02 | 1.06 | 0.862 |  |  |  |  | 1.09 | 1 | 1.04 | 0.901 | 0.935 | 0.917 | 0.87 | 0.766 |
| HCC-78 | 0.38 | 0.305 | 0.46 | 0.241 | 0.985 | 0.58 |  | 0.643 | 0.541 | 0.316 | 0.469 | 0.322 | 0.445 | 0.386 | 0.45 | 0.373 | 0.746 | 0.598 | 0.763 | 0.595 |
| HCC-366 | 0.37 | 0.476 | 0.558 | 0.13 | 1.1 | 0.992 |  | 0.0536 | 0.612 | 0.682 | 0.677 | 0.629 | 0.371 | 0.3 | 0.198 | 0.0431 | 0.32 | 0.314 | 0.314 | 0.169 |
